Consider 52 molecules from patent publication US10252984B2, “Inhibiting G protein coupled receptor 6 kinase polypeptides” (Mayo Foundation for Medical Education and Research, priority 2011, dated 2019).

In general, IC50 refers to the concentration at which inhibition is half-maximal.

Chain of GRK6, recombinant full-length GST-tagged human protein (P43250 whole entry): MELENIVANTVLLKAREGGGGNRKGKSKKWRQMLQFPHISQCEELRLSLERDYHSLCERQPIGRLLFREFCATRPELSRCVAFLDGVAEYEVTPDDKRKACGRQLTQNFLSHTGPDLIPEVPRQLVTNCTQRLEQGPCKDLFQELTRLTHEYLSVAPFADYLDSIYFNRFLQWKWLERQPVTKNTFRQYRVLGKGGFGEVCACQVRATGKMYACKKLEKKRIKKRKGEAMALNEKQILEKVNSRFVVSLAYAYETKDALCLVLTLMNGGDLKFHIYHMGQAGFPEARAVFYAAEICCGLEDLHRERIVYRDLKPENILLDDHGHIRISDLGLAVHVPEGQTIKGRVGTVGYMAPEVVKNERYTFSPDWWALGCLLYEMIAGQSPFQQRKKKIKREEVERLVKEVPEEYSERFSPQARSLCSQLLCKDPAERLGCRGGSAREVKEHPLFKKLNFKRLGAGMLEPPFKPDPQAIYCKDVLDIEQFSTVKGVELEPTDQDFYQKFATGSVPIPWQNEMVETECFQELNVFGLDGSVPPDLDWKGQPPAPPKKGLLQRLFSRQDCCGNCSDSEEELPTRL

In one experiment the target is GRK6, recombinant full-length GST-tagged human protein (Homo sapiens (Human), UniProt P43250). The experiment is described as follows: GRK6 LabChip microfluidic mobility shift kinase assay. It is filed as biochemical. As to conditions: 8-point concentration-response, top concentration 60 μM, ATP 12 μM (Km). As to the method:
[…] All determinations were performed in duplicates. To obtain the IC50 values and the Hill coefficient, the 4-parameter logistic equation was fitted to the data by non-linear regression using XLFit software.
In the case of `CCOC(=O)c1ccc(CC(=O)c2ccc(O)c(O)c2O)o1`, the IC50 is 7.05 µM. Still for that read-out and setting: under `CCCCn1c(N)c(C#N)c2nc3ccccc3nc21` stands 1.56 µM; under `CCOC(=O)c1c(N)n(C2CC2)c2nc3ccccc3nc12`, 2.83 µM. On the same count and under the same terms, as for `CCCCCn1c(N)c(C(=O)OC)c2nc3ccccc3nc21`, the figure is 1.03 µM; as for `CCNC(=S)N(CCO)Cc1cc2cc3c(cc2[nH]c1=O)OCO3`, greater than 60 µM. Same read-out and setting: under `CCCCCCn1c(N)c(C(=O)OC)c2nc3ccccc3nc21` stands 1.43 µM. As for `CCOc1cccc(=O)c2c(C)[nH]c(C)c12`, the IC50 was determined as 2.55 µM. As for `Oc1ccc(-c2nnc(NCCc3ccccc3)s2)cc1`, the half-inhibitory concentration (IC50) is greater than 60 µM. As for `Cc1cc2c(c(O)c1-c1c(C)cc3c(c1O)/C(=C/NCCCN1CCOCC1)C(=O)C(O)=C3C(C)C)/C(=C/NCCCN1CCOCC1)C(=O)C(O)=C2C(C)C`, the concentration for half-maximal inhibition (IC50) turned out to be 16.9 µM. With `O=c1cc(-c2ccc(O)cc2)oc2cc(O)c(O)c(O)c12`, the IC50 was determined as 6.61 µM. Same read-out and setting: under `COc1cc(/C=C2/SC(=S)N(c3cccnc3)C2=O)ccc1O` stands 40.6 µM; under `Cc1nc2ccccn2c1-c1csc(Nc2ccc(N)cc2)n1`, greater than 60 µM. With `N#CC1=C(N)Oc2cc(N)ccc2C1c1cc2cc3c(cc2nc1Cl)OCO3` (stereo not drawn), the IC50 worked out at 6.48 µM. On the same count and under the same terms, under `c1ccc(-c2ccc(C3=NN=C(NCc4ccco4)SC3)cc2)cc1` stands 10.4 µM; under `CCN(CC)CCn1c2ccccc2c2cnc(N)c(C#N)c21`, 18.8 µM.

Consider `Cc1ccc([N+](=O)[O-])c(NC2OC(CO)C(O)C2O)c1` (stereo not drawn), for which the IC50 was 12 µM.

On to `COc1ccc(-c2cc(=O)oc3c(O)c(O)ccc23)cc1`, for which the IC50 was determined as 7.16 µM.

Regarding `Cc1cccc(-c2nnc(SCC(=O)O)[nH]2)c1`, the IC50 came out at 1.44 µM. Regarding `CCOc1cc(-c2ccc(O)c(O)c2)cc(=O)c2c(C)oc(C)c12`, the IC50 turned out to be 4.41 µM.

Turning to `N#CC1=C(N)Oc2cc(N)ccc2C1c1cccs1` (stereo not drawn), the IC50 worked out at 11.8 µM. Still for that read-out and setting: as for `O=C1Nc2ccc(S(=O)(=O)N3CCCCC3)c3cccc1c23`, the figure is greater than 60 µM; as for `C1=Nc2cccc3cccc(c23)N1`, 12.5 µM.

As for `O=C(O)CSc1nnc(-c2ccc(OC(F)(F)F)cc2)[nH]1`, the concentration for half-maximal inhibition (IC50) stood at 5.92 µM.

Take `CC(=O)Nc1ccc(Nc2nnc(-c3ccc(O)cc3)c3ccccc23)cc1`: the concentration for half-maximal inhibition (IC50) was greater than 60 µM. For the molecule `CCn1c(COc2ccccc2)nnc1SCCC(=O)O`, the IC50 was greater than 60 µM. Same read-out and setting: under `COc1ccc(-c2cnc(-c3cccnc3)o2)cc1` stands greater than 60 µM; under `O=S(=O)(Nc1ccc(-n2cnnn2)cc1)c1ccc(S(=O)(=O)N2CCCCCC2)cc1`, greater than 60 µM. Take `Cc1cc2c(C(C)C)c(O)c(O)c(/C=N/CCCN3CCOCC3)c2c(O)c1-c1c(C)cc2c(C(C)C)c(O)c(O)c(/C=N/CCCN3CCOCC3)c2c1O`: the half-maximal inhibitory concentration (IC50) stood at 10.1 µM. Same read-out and setting: under `O=C(O)c1ccc([C@@H]2Nc3ccc(I)cc3[C@@H]3C=CC[C@@H]32)cc1` stands 6.66 µM; under `NC(=O)c1cc(N)c2c(c1N)C(=O)c1ccccc1C2=O`, 12.7 µM. For the molecule `O=C(O)CSc1nnc(-c2cccs2)[nH]1`, the IC50 amounted to 4.6 µM. As for `Oc1ccc(-c2nc3ccc4ccccc4c3c3c2CCC3)cc1O`, the concentration for half-maximal inhibition (IC50) worked out at 28.4 µM.

Turning to `CCN(CC)c1ccc(C(c2c(C)n[nH]c2O)c2c(C)n[nH]c2O)cc1`, the concentration for half-maximal inhibition (IC50) was 9.93 µM. The same measure, in the same setting: as for `Nc1ccc(CCc2nc3cc(N)ccc3o2)cc1`, the figure is 17.8 µM; as for `CN(C)c1ccc(O)c2c1CC1CC3[C@H](N(C)C)C(O)=C(C(N)=O)C(=O)[C@@]3(O)C(O)=C1C2=O` (stereo partly drawn), 1.37 µM. The same measure, in the same setting: under `Cc1cccc(NC2=NC(=O)/C(=C/c3ccc(O)c(O)c3)S2)c1C` stands 7.11 µM; under `CCCCC(CC)CNC(=O)c1ccc(N/N=C2\C(=O)Nc3ccc(Br)cc32)cc1` (stereo not drawn), greater than 60 µM. On the same count and under the same terms, as for `Cc1ccc(C2C(C#N)=C(N)Oc3cc(N)ccc32)cc1` (stereo not drawn), the figure is 26 µM.

As to `CCOc1ccc(NC(c2ccccn2)c2ccc3cccnc3c2O)cc1` (stereo not drawn), the 50% inhibitory concentration (IC50) was 4.48 µM. Still for that read-out and setting: under `CCN(CC)c1ccc(C2Nc3cccc4cccc(c34)N2)c(O)c1` stands 8.44 µM; under `COCCNC(=O)CN(C(=O)c1snc(C(N)=O)c1N)c1ccccc1`, greater than 60 µM; under `O=[N+]([O-])c1cc(C2=NN=C(NCc3ccco3)SC2)ccc1Cl`, 6.62 µM. Still for that read-out and setting: under `Cc1cc(NC(c2ccccn2)c2ccc3cccnc3c2O)no1` (stereo not drawn) stands 6.45 µM. Same read-out and setting: as for `Nc1ccc2c3c1C(=O)OC3(O)c1ccccc1C2=O` (stereo not drawn), the figure is 47 µM; as for `Cc1ccc2nc(NC=O)sc2c1`, greater than 60 µM. Consider `C=CCn1c(N)c(C(=O)OC)c2nc3ccccc3nc21`, for which the IC50 was 0.973 µM.

As to `O=c1cc(-c2ccccc2)oc2cc(O)c(O)c(O)c12`, the half-inhibitory concentration (IC50) was found to be 8.7 µM. On the same count and under the same terms, under `Cc1ccc(-c2ccccc2NS(=O)(=O)c2ccc(S(=O)(=O)N3CCCCCC3)cc2)o1` stands greater than 60 µM; under `Oc1c(C(Nc2ccccn2)c2cccnc2)ccc2cccnc12` (stereo not drawn), 6.75 µM; under `CCOc1cccc(=O)c2c(C)n(-c3ccc(C)cc3)c(C)c12`, 3.4 µM.

The experiment is the same for the next values; noted with them: GRK6 polypeptide inhibition assay, class symbols.
Regarding `Cc1ccc([N+](=O)[O-])c(NC2OC(CO)C(O)C2O)c1` (stereo not drawn), the half-inhibitory concentration (IC50) is 10.1 to 20 µM.

For the molecule `Cc1ccc(-c2ccccc2NS(=O)(=O)c2ccc(S(=O)(=O)N3CCCCCC3)cc2)o1`, the concentration for half-maximal inhibition (IC50) was greater than 20 µM.

The experiment is the same for the next values; noted with them: at ATP Km, 12-pt dose response, duplicates; values only in FIG. 1.
Turning to `O=S(=O)(NCCNC/C=C/c1ccc(Br)cc1)c1cccc2cnccc12` [H89, reference compound], the “IC50 values of model inhibitors” value was “in good agreement with published data”. Same read-out and setting: under `Cn1cc(C2=C(c3cn(CCCSC(=N)N)c4ccccc34)C(=O)NC2=O)c2ccccc21` [Ro-31-8220, reference compound] stands “in good agreement with published data”.
